Legend:
[1] = tested on: Schistosoma mansoni; assay: Schistosomicidal activity in infected mice (reduction in number of worms, single peroral treatment); assay type: in vivo, Schistosoma mansoni (Liberia strain) in albino mice; details: po, read-out: VD50 (vermicidal dosage which brings about a 50 percent reduction in the number of worms)
Description: Albino mice weighing 15-18 g are infected subcutaneously with 60±5 cercaria of a Liberia strain of Schistosoma mansoni. Forty-six (46) days after infection, the animals are treated once perorally with the test substance. There are 5-10 animals used per substance and dosage. There are 10 untreated animals used as controls. The autopsies are carried out after 60 days. Whereupon worm pairs and individual worms in the mesenteric veins, portal vein and liver are dissected out and counted.
For the evaluation, the percentage reduction in parasites in treated animals in comparison to untreated control animals is calculated. The VD50 is determined according to the Probit method. The VD50 is that vermicidal dosage which brings about a 50 percent reduction in the number of worms.
(§1) The Table which follows contains the results obtained with representative compounds of the invention. In the Table there are given VD50 in mg/kg p.o. and the LD50 in mg/kg in the case of single oral administration to mice.

[2] = Acute toxicity, single oral administration to mice; details: mouse, in vivo, p.o.
Source text: as §1

Work on c1ccc2c(=NN=C3NCCS3)c3ccccc3[nH]c2c1 [9-acridanone (2-thiazolidinylidene)hydrazone] yielded an ED50 [1] of 26 mg/kg and an LD50 [2] of 1250 to 2500 mg/kg.

For Cl.Cn1c2ccccc2c(=NNc2nccs2)c2ccccc21 [10-methyl-9-acridanone (2-thiazolyl)hydrazone hydrochloride], the ED50 [1] was 9 mg/kg and the LD50 [2] was > 5000 mg/kg.
